Reference: PubChem BioAssay (NCI)
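The concentration for 50% growth inhibition is given as GI50. TGI: concentration producing complete growth inhibition.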

Assays:
Experiment in all cases: NCI tumour cell line growth inhibition, 384-well format; in the data active = GI50 below about 0.43 µM; inactive = the rest
[1] = test system: MALME-3M melanoma
[2] = test system: PC-3 prostate
[3] = test system: NCI/ADR-RES ovarian
[4] = test system: OVCAR-5 ovarian
[5] = test system: SK-OV-3 ovarian
[6] = test system: IGROV1 ovarian
[7] = test system: MOLT-4 leukemia
[8] = test system: RPMI-8226 leukemia
[9] = test system: KM12 colon
[10] = test system: HOP-62 NSCLC
[11] = test system: RXF 393 renal
[12] = test system: NCI-H226 lung
[13] = test system: UO-31 renal
[14] = test system: SNB-75 CNS
[15] = test system: NCI-H522 lung
[16] = test system: SR leukemia
[17] = test system: HL-60(TB) leukemia
[18] = test system: K-562 leukemia
[19] = test system: SF-295 CNS
[20] = test system: OVCAR-4 ovarian
[21] = test system: TK-10 renal
[22] = test system: NCI-H23 lung
[23] = test system: A498 renal
[24] = test system: SW-620 colon
[25] = test system: A549 NSCLC
[26] = test system: SF-268 CNS
[27] = test system: MCF7 breast
[28] = test system: SF-539 CNS
[29] = test system: UACC-62 melanoma
[30] = test system: MDA-MB-231 breast
[31] = test system: DU-145 prostate
[32] = test system: ACHN renal
[33] = test system: EKVX NSCLC
[34] = test system: OVCAR-3 ovarian
[35] = test system: HCT-15 colon
[36] = test system: NCI-H460 NSCLC
[37] = test system: T-47D breast
[38] = test system: SK-MEL-28 melanoma
[39] = test system: M14 melanoma
[40] = test system: CAKI-1 renal
[41] = test system: COLO 205 colon
[42] = test system: UACC-257 melanoma
[43] = test system: SK-MEL-2 melanoma
[44] = test system: HCT-116 colon
[45] = test system: SK-MEL-5 melanoma
[46] = test system: SNB-19 CNS
[47] = test system: CCRF-CEM leukemia
[48] = test system: LOX IMVI melanoma
[49] = test system: BT-549 breast
[50] = test system: HT29 colon
[51] = test system: SN12C renal
[52] = test system: NCI-H322M lung
[53] = test system: MDA-MB-468 breast
[54] = test system: 786-0 renal
[55] = test system: MDA-MB-435 melanoma
[56] = test system: HS 578T breast
[57] = test system: U251 glioblastoma
[58] = test system: HOP-92 NSCLC

Cn1cc(-c2ccc3nnc(Sc4ccc5ncccc5c4)n3n2)cn1
inactive: GI50 [1] > 100 µM | GI50 [2] > 100 µM | GI50 [3] > 100 µM | GI50 [4] > 100 µM | GI50 [5] > 100 µM | GI50 [6] > 100 µM | GI50 [7] > 100 µM | GI50 [8] > 100 µM | GI50 [9] > 100 µM | GI50 [10] > 100 µM | GI50 [11] 38.2 µM | GI50 [12] > 100 µM | GI50 [13] > 100 µM | GI50 [14] > 100 µM | GI50 [15] > 100 µM | GI50 [16] 27.2 µM | GI50 [17] > 100 µM | GI50 [18] > 100 µM | GI50 [19] 46.3 µM | GI50 [20] > 100 µM | GI50 [21] > 100 µM | GI50 [22] > 100 µM | GI50 [23] > 100 µM | GI50 [24] > 100 µM | GI50 [25] > 100 µM | GI50 [26] > 100 µM | GI50 [27] > 100 µM | GI50 [28] > 100 µM | GI50 [29] > 100 µM | GI50 [30] > 100 µM | GI50 [31] > 100 µM | GI50 [32] > 100 µM | GI50 [33] > 100 µM | GI50 [34] > 100 µM | GI50 [35] > 100 µM | GI50 [36] > 100 µM | GI50 [37] > 100 µM | GI50 [38] > 100 µM | GI50 [39] > 100 µM | GI50 [40] > 100 µM | GI50 [41] > 100 µM | GI50 [42] > 100 µM | GI50 [43] > 100 µM | GI50 [44] > 100 µM | GI50 [45] > 100 µM | GI50 [46] > 100 µM | GI50 [47] > 100 µM | GI50 [48] > 100 µM | GI50 [49] > 100 µM | GI50 [50] > 100 µM | GI50 [51] > 100 µM | GI50 [52] > 100 µM | GI50 [53] 13.8 µM | GI50 [54] > 100 µM | GI50 [55] > 100 µM | GI50 [56] 61.6 µM | GI50 [57] > 100 µM | GI50 [58] > 100 µM
> 100 µM: TGI [1] | TGI [2] | TGI [3] | TGI [4] | TGI [5] | TGI [6] | TGI [7] | TGI [8] | TGI [9] | TGI [10] | TGI [11] | TGI [12] | TGI [13] | TGI [14] | TGI [15] | TGI [16] | TGI [17] | TGI [18] | TGI [19] | TGI [20] | TGI [21] | TGI [22] | TGI [23] | TGI [24] | TGI [25] | TGI [26] | TGI [27] | TGI [28] | TGI [29] | TGI [30] | TGI [31] | TGI [32] | TGI [33] | TGI [34] | TGI [35] | TGI [36] | TGI [37] | TGI [38] | TGI [39] | TGI [40] | TGI [41] | TGI [42] | TGI [43] | TGI [44] | TGI [45] | TGI [46] | TGI [47] | TGI [48] | TGI [49] | TGI [50] | TGI [51] | TGI [52] | TGI [54] | TGI [55] | TGI [56] | TGI [57] | TGI [58]
48.4 µM: TGI [53]
